Here are results for one molecule from PMC5218480 (PLoS ONE, 2017).

This test concerns MV-4-11 cells. The test can be described thus: Gene expression microarray analysis (Affymetrix PrimeView) and GSEA. In kind it is cell-based, human. Also on record: RFU PODN (11730768_x_at) / Fold change /veh PODN (11730768_x_at) / RFU LINC00158 (11744669_a_at) / Fold change /veh LINC00158 (11744669_a_at) / RFU DUSP10 (11751237_a_at) / Fold change /veh DUSP10 (11751237_a_at) / RFU ID3 (11757404_x_at) / Fold change /veh ID3 (11757404_x_at) / RFU PLEKHG5 (11737974_s_at) / Fold change /veh PLEKHG5 (11737974_s_at) / RFU LRRC4B (11730491_at) / Fold change /veh LRRC4B (11730491_at) / RFU GIMAP4 (11747438_a_at) / Fold change /veh GIMAP4 (11747438_a_at) / RFU KRT8 (11758183_x_at) / Fold change /veh KRT8 (11758183_x_at) / RFU CNN1 (11734310_a_at) / Fold change /veh CNN1 (11734310_a_at) / RFU VPS37D (11726825_at) / Fold change /veh VPS37D (11726825_at) / RFU C10orf10 (11716522_x_at) / Fold change /veh C10orf10 (11716522_x_at) / RFU KIR2DL2 /// KIR2DL4 /// KIR2DL5A /// KIR2DL5B /// KIR2DS1 /// KIR2DS2 /// KIR2DS3 /// KIR2DS4 /// KIR3DL3 /// KIR3DL3 /// KIR3DS1 (11738374_at) / Fold change /veh KIR2DL2 /// KIR2DL4 /// KIR2DL5A /// KIR2DL5B /// KIR2DS1 /// KIR2DS2 /// KIR2DS3 /// KIR2DS4 /// KIR3DL3 /// KIR3DL3 /// KIR3DS1 (11738374_at) / RFU C1QL1 (11718748_at) / Fold change /veh C1QL1 (11718748_at) / RFU TMPRSS4 (11747572_a_at) / Fold change /veh TMPRSS4 (11747572_a_at) / RFU HAMP (11756126_x_at) / Fold change /veh HAMP (11756126_x_at) / RFU RNFT2 (11725882_a_at) / Fold change /veh RNFT2 (11725882_a_at) / RFU NR4A2 (11747474_a_at) / Fold change /veh NR4A2 (11747474_a_at) / RFU ABCC12 (11746883_a_at) / Fold change /veh ABCC12 (11746883_a_at) / RFU TMEM136 (11760407_x_at) / Fold change /veh TMEM136 (11760407_x_at) / RFU CLDN22 /// WWC2 (11732394_at) / Fold change /veh CLDN22 /// WWC2 (11732394_at) / RFU HLA-DPB1 (11760878_x_at) / Fold change /veh HLA-DPB1 (11760878_x_at) / RFU SPINT1 (11716480_a_at) / Fold change /veh SPINT1 (11716480_a_at) / RFU GAP43 (11754022_s_at) / Fold change /veh GAP43 (11754022_s_at) / RFU A4GNT (11735810_at) / Fold change /veh A4GNT (11735810_at) / RFU PRB3 (11715151_x_at) / Fold change /veh PRB3 (11715151_x_at) / RFU TUBB4B (11761932_at) / Fold change /veh TUBB4B (11761932_at) / RFU CAPN14 (11732068_a_at) / Fold change /veh CAPN14 (11732068_a_at) / RFU TMCC2 (11721928_a_at) / Fold change /veh TMCC2 (11721928_a_at) / RFU IRGQ (11745062_a_at) / Fold change /veh IRGQ (11745062_a_at) / RFU FAM174B (11720279_a_at) / Fold change /veh FAM174B (11720279_a_at) / RFU TMPRSS4 (11748680_a_at) / Fold change /veh TMPRSS4 (11748680_a_at) / RFU FAM212B (11763350_a_at) / Fold change /veh FAM212B (11763350_a_at) / RFU PLEKHG5 (11743358_a_at) / Fold change /veh PLEKHG5 (11743358_a_at) / RFU ZSCAN30 (11745921_a_at) / Fold change /veh ZSCAN30 (11745921_a_at) / RFU CMKLR1 (11741424_a_at) / Fold change /veh CMKLR1 (11741424_a_at) / RFU LOC101060620 /// MAPK8IP1 (11723275_at) / Fold change /veh LOC101060620 /// MAPK8IP1 (11723275_at) / RFU SPTSSB (11747773_x_at) / Fold change /veh SPTSSB (11747773_x_at) / RFU PRSS12 (11739890_at) / Fold change /veh PRSS12 (11739890_at) / RFU BIN1 (11741810_x_at) / Fold change /veh BIN1 (11741810_x_at) / RFU WNT11 (11732464_a_at) / Fold change /veh WNT11 (11732464_a_at) / RFU C10orf10 (11716521_a_at) / Fold change /veh C10orf10 (11716521_a_at) / RFU C5orf56 (11738089_at) / Fold change /veh C5orf56 (11738089_at) / RFU CYB561 (11721691_x_at) / Fold change /veh CYB561 (11721691_x_at) / RFU ANKRD19P (11752326_a_at) / Fold change /veh ANKRD19P (11752326_a_at) / RFU OR2T12 /// OR2T33 /// OR2T8 (11738714_s_at) / Fold change /veh OR2T12 /// OR2T33 /// OR2T8 (11738714_s_at) / RFU VCAN (11748164_a_at) / Fold change /veh VCAN (11748164_a_at) / RFU JSRP1 (11732532_at) / Fold change /veh JSRP1 (11732532_at) / RFU KRTAP10-11 (11738290_x_at) / Fold change /veh KRTAP10-11 (11738290_x_at) / RFU MYO3A (11730013_a_at) / Fold change /veh MYO3A (11730013_a_at) / RFU EBF3 (11725865_a_at) / Fold change /veh EBF3 (11725865_a_at) / RFU CAMK2N1 (11719241_x_at) / Fold change /veh CAMK2N1 (11719241_x_at) / RFU C5orf56 (11738088_a_at) / Fold change /veh C5orf56 (11738088_a_at) / RFU OLFML3 (11715873_a_at) / Fold change /veh OLFML3 (11715873_a_at) / RFU LOC100653217 /// NTM (11731650_a_at) / Fold change /veh LOC100653217 /// NTM (11731650_a_at) / RFU MAPK11 (11762145_a_at) / Fold change /veh MAPK11 (11762145_a_at) / RFU FIZ1 (11724087_x_at) / Fold change /veh FIZ1 (11724087_x_at) / RFU OASL (11726364_x_at) / Fold change /veh OASL (11726364_x_at) / RFU SOX15 (11748057_x_at) / Fold change /veh SOX15 (11748057_x_at) / RFU CD79A (11719716_a_at) / Fold change /veh CD79A (11719716_a_at) / RFU HIST1H1D (11736915_at) / Fold change /veh HIST1H1D (11736915_at) / RFU CASKIN2 (11723855_a_at) / Fold change /veh CASKIN2 (11723855_a_at) / RFU LOC730098 (11760151_x_at) / Fold change /veh LOC730098 (11760151_x_at) / RFU OR4N2 (11742367_at) / Fold change /veh OR4N2 (11742367_at) / RFU PRRT2 (11749266_a_at) / Fold change /veh PRRT2 (11749266_a_at) / RFU SNX32 (11753110_a_at) / Fold change /veh SNX32 (11753110_a_at) / RFU CDHR5 (11726645_a_at) / Fold change /veh CDHR5 (11726645_a_at) / RFU RCAN1 (11760418_a_at) / Fold change /veh RCAN1 (11760418_a_at) / RFU FAM167A (11723789_a_at) / Fold change /veh FAM167A (11723789_a_at) / RFU FAM26E (11764081_at) / Fold change /veh FAM26E (11764081_at) / RFU ISYNA1 (11749810_s_at) / Fold change /veh ISYNA1 (11749810_s_at) / RFU ACY1 (11761880_at) / Fold change /veh ACY1 (11761880_at) / RFU 11764098_at / Fold change /veh 11764098_at / RFU SAMD14 (11745864_x_at) / Fold change /veh SAMD14 (11745864_x_at) / RFU NPB (11741838_a_at) / Fold change /veh NPB (11741838_a_at) / RFU TMPRSS6 (11731388_a_at) / Fold change /veh TMPRSS6 (11731388_a_at) / RFU KRTAP10-2 (11738614_at) / Fold change /veh KRTAP10-2 (11738614_at) / RFU ARHGAP8 /// PRR5-ARHGAP8 (11727945_x_at) / Fold change /veh ARHGAP8 /// PRR5-ARHGAP8 (11727945_x_at) / RFU KRTAP5-7 /// NADSYN1 (11734609_at) / Fold change /veh KRTAP5-7 /// NADSYN1 (11734609_at) / RFU RASL12 (11751679_a_at) / Fold change /veh RASL12 (11751679_a_at) / RFU CDKN2B (11736163_a_at) / Fold change /veh CDKN2B (11736163_a_at) / RFU PRF1 (11729649_at) / Fold change /veh PRF1 (11729649_at) / RFU, ZNF638 /// ZNF638-IT1 / Fold change vs veh, ZNF638 /// ZNF638-IT1 / RFU, PANK3 / Fold change vs veh, PANK3 / RFU, SH3YL1 / Fold change vs veh, SH3YL1 / RFU, ZEB2 / Fold change vs veh, ZEB2 / RFU, NRIP1 / Fold change vs veh, NRIP1 / RFU, PTTG1IP / Fold change vs veh, PTTG1IP / RFU, CAPN2 / Fold change vs veh, CAPN2 / RFU, MED14 / Fold change vs veh, MED14 / RFU, SNORA58 / Fold change vs veh, SNORA58 / RFU, C1orf63 / Fold change vs veh, C1orf63 / RFU, LRRFIP1 / Fold change vs veh, LRRFIP1 / RFU, NDUFAF7 / Fold change vs veh, NDUFAF7 / RFU, SLC12A2 / Fold change vs veh, SLC12A2 / RFU, IBTK / Fold change vs veh, IBTK / RFU, ESF1 / Fold change vs veh, ESF1 / Fold change vs veh, TMEM50B / RFU, TAOK1 / Fold change vs veh, TAOK1 / RFU, ACBD3 / Fold change vs veh, ACBD3 / RFU, TMA16 / Fold change vs veh, TMA16 / RFU, RWDD3 / Fold change vs veh, RWDD3 / RFU, BCAT1 / Fold change vs veh, BCAT1 / RFU, EDEM3 / Fold change vs veh, EDEM3 / RFU, TMEM33 / Fold change vs veh, TMEM33 / RFU, WDR75 / Fold change vs veh, WDR75 / RFU, AHCTF1 / Fold change vs veh, AHCTF1 / RFU, TFRC / Fold change vs veh, TFRC / RFU, ZDHHC17 / Fold change vs veh, ZDHHC17 / RFU, NOM1 / Fold change vs veh, NOM1 / RFU, ARL8B / Fold change vs veh, ARL8B / RFU, ZBTB11 / Fold change vs veh, ZBTB11 / RFU, TAMM41 / Fold change vs veh, TAMM41 / RFU, KIAA1704 /// LOC100996395 / Fold change vs veh, KIAA1704 /// LOC100996395 / RFU, ING1 / Fold change vs veh, ING1 / RFU, TRMT61B / Fold change vs veh, TRMT61B / RFU, FUBP3 / Fold change vs veh, FUBP3 / RFU, TP53 / Fold change vs veh, TP53 / RFU, TNKS2 / Fold change vs veh, TNKS2 / RFU, ZFP14 / Fold change vs veh, ZFP14 / RFU, ACTR2 / Fold change vs veh, ACTR2 / RFU, PPP3R1 / Fold change vs veh, PPP3R1 / RFU, PIK3R1 / Fold change vs veh, PIK3R1 / RFU, HNRNPA1 / Fold change vs veh, HNRNPA1 / RFU, RNF170 / Fold change vs veh, RNF170 / RFU, ZNF28 / Fold change vs veh, ZNF28 / RFU, RNGTT / Fold change vs veh, RNGTT / RFU, OGT / Fold change vs veh, OGT / RFU, BRD1 / Fold change vs veh, BRD1 / RFU, MARS / Fold change vs veh, MARS / RFU, ZNF655 / Fold change vs veh, ZNF655 / RFU, FAHD1 / Fold change vs veh, FAHD1 / RFU, BDP1 / Fold change vs veh, BDP1 / RFU, LRRCC1 / Fold change vs veh, LRRCC1 / RFU, ARID1A / Fold change vs veh, ARID1A / RFU, ZNF146 / Fold change vs veh, ZNF146 / RFU, ZNF330 / Fold change vs veh, ZNF330 / RFU, GPN3 / Fold change vs veh, GPN3 / RFU, C9orf123 / Fold change vs veh, C9orf123 / RFU, N4BP2L2 / Fold change vs veh, N4BP2L2 / RFU, ARFIP1 / Fold change vs veh, ARFIP1 / RFU, FAM179B / Fold change vs veh, FAM179B / RFU, BCL10 / Fold change vs veh, BCL10 / RFU, UHRF1BP1L / Fold change vs veh, UHRF1BP1L / RFU, BET1 / Fold change vs veh, BET1 / RFU, CNOT2 / Fold change vs veh, CNOT2 / RFU, ZNF268 / Fold change vs veh, ZNF268 / Fold change vs veh, ZNF507 / RFU, DGCR2 / Fold change vs veh, DGCR2 / RFU, WDSUB1 / Fold change vs veh, WDSUB1 / Fold change vs veh, HSP90B1 /// MIR3652 / RFU, ADSS / Fold change vs veh, ADSS / RFU, GK / Fold change vs veh, GK / RFU, ZNF148 / Fold change vs veh, ZNF148 / RFU, TAF9 / Fold change vs veh, TAF9 / RFU, SLC1A5 / Fold change vs veh, SLC1A5 / RFU, SLMO2 / Fold change vs veh, SLMO2 / RFU, ABCC4 / Fold change vs veh, ABCC4 / RFU, LOC101060439 /// RAP1B / Fold change vs veh, LOC101060439 /// RAP1B / RFU, RFX7 / Fold change vs veh, RFX7 / RFU, GTPBP10 / Fold change vs veh, GTPBP10 / RFU, CNEP1R1 / Fold change vs veh, CNEP1R1 / RFU, BIVM-ERCC5 /// ERCC5 / Fold change vs veh, BIVM-ERCC5 /// ERCC5 / RFU, ILF3 / Fold change vs veh, ILF3 / RFU 11762660_at / Fold change /veh 11762660_at / RFU VCAN (11757783_s_at) / Fold change /veh VCAN (11757783_s_at) / RFU DDX43 (11728927_at) / Fold change /veh DDX43 (11728927_at) / RFU KRT8 (11758188_x_at) / Fold change /veh KRT8 (11758188_x_at) / RFU NKD1 (11759106_at) / Fold change /veh NKD1 (11759106_at) / RFU SRD5A1 (11742802_a_at) / Fold change /veh SRD5A1 (11742802_a_at) / RFU TPSAB1 /// TPSB2 (11721975_s_at) / Fold change /veh TPSAB1 /// TPSB2 (11721975_s_at) / RFU GSTM3 (11746129_a_at) / Fold change /veh GSTM3 (11746129_a_at) / RFU IL23R (11737362_x_at) / Fold change /veh IL23R (11737362_x_at) / RFU TMEM51 (11727254_a_at) / Fold change /veh TMEM51 (11727254_a_at) / RFU PIWIL2 (11732686_x_at) / Fold change /veh PIWIL2 (11732686_x_at) / RFU ORM1 (11744905_x_at) / Fold change /veh ORM1 (11744905_x_at) / RFU CCDC152 (11743942_at) / Fold change /veh CCDC152 (11743942_at) / RFU ECM1 (11717891_a_at) / Fold change /veh ECM1 (11717891_a_at) / RFU IL23R (11748794_a_at) / Fold change /veh IL23R (11748794_a_at) / RFU TNFAIP8L3 (11732012_x_at) / Fold change /veh TNFAIP8L3 (11732012_x_at) / RFU MBOAT4 (11741988_at) / Fold change /veh MBOAT4 (11741988_at) / RFU 11764193_at / Fold change /veh 11764193_at / RFU TMEM53 (11763286_at) / Fold change /veh TMEM53 (11763286_at) / RFU MAGEB2 (11727129_at) / Fold change /veh MAGEB2 (11727129_at) / RFU TMEM200A (11744735_a_at) / Fold change /veh TMEM200A (11744735_a_at) / RFU CCDC152 (11751479_a_at) / Fold change /veh CCDC152 (11751479_a_at) / RFU FAM211A (11726209_a_at) / Fold change /veh FAM211A (11726209_a_at) / RFU RGS16 (11746705_a_at) / Fold change /veh RGS16 (11746705_a_at) / RFU VCAN (11755009_s_at) / Fold change /veh VCAN (11755009_s_at) / RFU RHOB (11743442_s_at) / Fold change /veh RHOB (11743442_s_at) / RFU RGS16 (11720943_a_at) / Fold change /veh RGS16 (11720943_a_at) / RFU RGS16 (11720944_at) / Fold change /veh RGS16 (11720944_at) / RFU, VPS4B / Fold change vs veh, VPS4B / RFU, CREB1 / Fold change vs veh, CREB1 / RFU, DNAJC13 / Fold change vs veh, DNAJC13 / RFU, GNAQ / Fold change vs veh, GNAQ / RFU, CDK5R1 / Fold change vs veh, CDK5R1 / RFU, ZRANB3 / Fold change vs veh, ZRANB3 / RFU, CUL4A / Fold change vs veh, CUL4A / RFU, CCNY / Fold change vs veh, CCNY / RFU, UFL1 / Fold change vs veh, UFL1 / RFU, COG3 / Fold change vs veh, COG3 / RFU, DIAPH2 / Fold change vs veh, DIAPH2 / RFU, SKA2 / Fold change vs veh, SKA2 / RFU, AFF3 / Fold change vs veh, AFF3 / RFU, LMF1 / Fold change vs veh, LMF1 / RFU, IPO11 / Fold change vs veh, IPO11 / RFU, DFFB / Fold change vs veh, DFFB / RFU, FOXP1 / Fold change vs veh, FOXP1 / RFU, CARD8 / Fold change vs veh, CARD8 / RFU, STRN3 / Fold change vs veh, STRN3 / RFU, ADK / Fold change vs veh, ADK / RFU, RASSF2 / Fold change vs veh, RASSF2 / RFU, WIPF1 / Fold change vs veh, WIPF1 / RFU, LARP1B / Fold change vs veh, LARP1B / RFU, RASA1 / Fold change vs veh, RASA1 / RFU, RB1 / Fold change vs veh, RB1 / RFU, PPFIA1 / Fold change vs veh, PPFIA1 / RFU, MAT2A / Fold change vs veh, MAT2A / RFU, CCT5 / Fold change vs veh, CCT5 / RFU, WDR92 / Fold change vs veh, WDR92 / RFU, CUX1 / Fold change vs veh, CUX1 / RFU, TTC7A / Fold change vs veh, TTC7A / RFU, TMEM135 / Fold change vs veh, TMEM135 / RFU, DEPTOR / Fold change vs veh, DEPTOR / RFU, CPM / Fold change vs veh, CPM / RFU, DNAJB6 / Fold change vs veh, DNAJB6 / RFU, CACNA2D3 / Fold change vs veh, CACNA2D3 / RFU, DTX4 / Fold change vs veh, DTX4 / RFU, TFCP2 / Fold change vs veh, TFCP2 / RFU, GMCL1 /// GMCL1P1 / Fold change vs veh, GMCL1 /// GMCL1P1 / RFU, AEBP2 / Fold change vs veh, AEBP2 / RFU, SNHG1 /// SNORD22 /// SNORD25 /// SNORD26 /// SNORD27 /// SNORD28 /// SNORD29 /// SNORD31 / Fold change vs veh, SNHG1 /// SNORD22 /// SNORD25 /// SNORD26 /// SNORD27 /// SNORD28 /// SNORD29 /// SNORD31 / Fold change (Aza/veh), C12orf56 (ProbeSet 11735607_a_at) / Fold change (ACY-1035/veh), C12orf56 (ProbeSet 11735607_a_at) / Fold change (Aza/veh), FGFR1OP (ProbeSet 11751329_s_at) / Fold change (ACY-1035/veh), FGFR1OP (ProbeSet 11751329_s_at) / Fold change (Aza/veh), VPS36 (ProbeSet 11739960_a_at) / Fold change (ACY-1035/veh), VPS36 (ProbeSet 11739960_a_at) / RFU SYPL1 (11715823_x_at) / Fold change /veh SYPL1 (11715823_x_at) / RFU IGFBP7 (11715501_s_at) / Fold change /veh IGFBP7 (11715501_s_at) / RFU REEP3 (11722064_at) / Fold change /veh REEP3 (11722064_at) / RFU IGLL1 (11728026_x_at) / Fold change /veh IGLL1 (11728026_x_at): dose or concentration left out as unconfirmed. Conditions: MV-4-11 cells, 48 hours.

Turning to `Nc1ncn([C@@H]2O[C@H](CO)[C@@H](O)[C@H]2O)c(=O)n1` [azacitidine], the “Fold change /veh LOC730098 (11760151_x_at)” value turned out to be 1.03.
